Test results as given in ChEMBL document CHEMBL1833860 (Bioorg Med Chem Lett, 2011).
Values after ≈ are worked out from the molar mass of the structure shown.

Experiments:
[1] = Dissociation constant, pKa of the compound; assay type: physicochemical
[2] = Volume of distribution at steady state in rat at 1 mg/kg, iv and 3 mg/kg, po; assay type: ADME, organism-based; details: in vivo, read-out: Vdss
[3] = Half life in rat at 1 mg/kg, iv and 3 mg/kg, po; assay type: ADME, organism-based; details: in vivo
[4] = Clearance in rat at 1 mg/kg, iv and 3 mg/kg, po; assay type: ADME, organism-based; details: in vivo
[5] = Oral bioavailability in rat at 3 mg/kg; assay type: ADME, organism-based; details: in vivo
[6] = Distribution coefficient, log D of compound; assay type: physicochemical; details: octanol/water
[7] = Aqueous solubility of compound in fed state simulated intestinal fluid at pH 6.5; assay type: physicochemical

## Cc1cccc(Nc2nc(N[C@@H]3CCCC[C@@H]3N)ncc2C(N)=O)c1
[1]
  pKa: 9.4

## Cc1cccc(Nc2nc(N[C@@H]3CCOC[C@@H]3N)ncc2C(N)=O)c1
[1]
  pKa: 8.1
[2]
  Vd: 4 L/kg
[3]
  half-life: 1.9 h
[4]
  clearance: 32 mL/min/kg
[5]
  bioavailability: 14%

## Cc1ccc(Nc2nc(N[C@@H]3CCOC[C@@H]3N)ncc2C(N)=O)cc1
[6]
  logD: 0.9
[7]
  solubility: 420 µg/mL (≈ 1230 µM)
[2]
  Vd: 4.1 L/kg
[3]
  half-life: 4.2 h
[4]
  clearance: 16 mL/min/kg
[5]
  bioavailability: 30%

## COc1ccc(Nc2nc(N[C@@H]3CCOC[C@@H]3N)ncc2C(N)=O)cc1
[2]
  Vd: 3.9 L/kg
[3]
  half-life: 2.3 h
[4]
  clearance: 45 mL/min/kg
[5]
  bioavailability: 10%

## Cc1cccc(Nc2nc(N[C@@H]3CC(F)(F)CC[C@@H]3N)ncc2C(N)=O)c1 (racemic)
[1]
  pKa: 7.9
